Where “and” joins values, the source holds several entries; their conditions need not be identical. Identical values can stand only once.
How the values were obtained:
[1] = system: annual ryegrass (LOLMG=Lolium multiflorum subsp. gaudini); assay: Greenhouse postemergence herbicidal effect; format: in vivo; conditions: 10 g/ha
How it was run: (§1)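 Visual rating, 0 (no injury) to 100% (complete kill), taken 20–22 d after treatment relative to solvent-sprayed controls. Pyridine carboxylate (g ae/ha) combined with ALS herbicide (g ai/ha), applied by track sprayer at 187 L/ha with 1.25% v/v oil adjuvant and cloquintocet-mexyl safener.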

[2] = system: barnyard grass (ECHCG, Echinochloa crus-galli); assay: Greenhouse postemergence herbicidal effect; format: in vivo; conditions: Compound A 10 g/ha
How it was run: (§2)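 Greenhouse plants at the second–third true leaf received overhead sprays (187 L/ha) of herbicide mixtures containing safener and oil adjuvant. Percent control or crop injury was judged by eye 20–22 d later on a 0–100 scale.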

[3] = system: wild oat (AVEFA, Avena fatua); assay: Greenhouse postemergence herbicidal effect; format: in vivo
How it was run: as §2

[4] = system: nutsedge (CYPES, Cyperus esculentus); assay: Greenhouse postemergence herbicidal effect; format: in vivo
How it was run: as §2

[5] = system: broadleaf signalgrass (BRAPP, Brachiaria platyphylla); assay: Greenhouse postemergence herbicidal effect; format: in vivo; conditions: Compound A 10 g/ha
How it was run: as §1

winter wheat (TRZAW) = assay: Greenhouse postemergence crop phytotoxicity; format: in vivo, Triticum aestivum
Text: (§3) Seeds of the desired test plant species were planted in a 90:10% v/v (volume/volume) mixture of PRO-MIX® BX (Premier Tech Horticulture, Quakertown, PA, USA) and PROFILE® GREENS GRADE™ (Profile Products LLC, Buffalo Grove, IL, USA) planting mixture, which typically has a pH of 5.2 to 6.2 and an organic matter content of at least 50 percent, in plastic pots with a surface area of 103.2 square centimeters (cm^2). In some aspects, to ensure good germination and healthy plants, a fungicide treatment and/or other chemical or physical treatment was applied. The plants were grown for 7-36 days (d) in a greenhouse with an approximate 14-hour (h) photo-period which was maintained at about 23° C. during the day and 22° C. during the night. Nutrients and water were added on a regular basis and supplemental lighting was provided with overhead metal halide 1000-Watt lamps as necessary. The plants were employed for testing when they reached the second or third true leaf stage.
(§4) Emulsifiable concentrates of each of each pyridine carboxylate herbicide (Compound A or Compound B) were prepared at 100 grams acid equivalent per liter (g ae/L). The emulsifiable concentrates also included a safener, cloquintocet-mexyl, at 120 grams active ingredient per liter (g ai/L), unless otherwise noted below. An aliquot of each emulsifiable concentrate was placed in a 25 mL glass vial and diluted with an aqueous mixture of 1.25% (v/v) ACTIROB® B esterified rapeseed oil (Bayer Crop Science, Research Triangle Park, NC, USA) or MSO® Concentrate with LECI-TECH® methylated soybean oil (Loveland Products, Loveland, CO, USA) to obtain concentrated stock solutions at the highest application rate for each herbicide, based upon a 12 milliliter (mL) application volume at a rate of 187 liters per hectare (L/ha). The concentrated stock solutions were further diluted with an aqueous mixture of 1.25% v/v ACTIROB® B or MSO® Concentrate with LECI-TECH® to obtain stock solutions at reduced application rates for each herbicide. Spray solutions of the herbicide combinations (Compound A or Compound B plus ALS herbicide) were prepared by adding weighed amounts or aliquots of the ALS herbicides to the stock solutions of Compound A or Compound B to form 12-mL spray solutions in two- or three-way combinations. […]
(§5) The treated plants and control plants were placed in a greenhouse as described above and watered by sub-irrigation to prevent wash-off of the test compounds. After 20-22 d, the condition of the test plants as compared with that of the control plants was determined visually and scored on a scale of 0 to 100 percent where 0 corresponds to no injury and 100 corresponds to complete kill.

[6] = system: field violet (VIOAR, Viola arvensis); assay: Greenhouse postemergence herbicidal effect; format: in vivo
How it was run: (§6)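 Plants grown in a greenhouse (~14 h photoperiod, about 23 °C day/22 °C night) were sprayed postemergence at the second or third true leaf stage. Formulations contained cloquintocet-mexyl safener; pyridine carboxylate rates are in g ae/ha, ALS inhibitor rates in g ai/ha. Injury versus solvent-blank controls was scored visually (0–100%) after 20–22 d.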

[7] = system: wild mustard (SINAR, Sinapis arvensis); assay: Greenhouse postemergence herbicidal effect; format: in vivo
How it was run: as §6

[8] = system: field chamomile (ANTAR, Anthemis arvensis); assay: Greenhouse postemergence herbicidal effect; format: in vivo
How it was run: as §6

[9] = system: ivyleaf speedwell (VERHE, Veronica hederifolia); assay: Greenhouse postemergence herbicidal effect; format: in vivo
How it was run: as §6

maize (ZEAMX, Zea mays) = assay: Greenhouse postemergence crop phytotoxicity; format: in vivo; conditions: Compound A 10 g/ha; safener mefenpyr-diethyl
Protocol: as §3, with “In some aspects, to ensure good germination and healthy plants, a fungicide treatment and/or other chemical or physical treatment was applied.” left out
as §4, §5

[10] = system: rice (ORYSA, Oryza sativa); assay: Greenhouse postemergence crop phytotoxicity; format: in vivo; conditions: Compound A 10 g/ha; safener mefenpyr-diethyl
Protocol: as §3, with “In some aspects, to ensure good germination and healthy plants, a fungicide treatment and/or other chemical or physical treatment was applied.” left out
as §4, §5

[11] = system: turnip (BRSRR, Brassica rapa); assay: Greenhouse postemergence herbicidal effect; format: in vivo
How it was run: as §6

[12] = Compound A 10 g/ha, safener mefenpyr-diethyl

Compound: N#CCOC(=O)c1nc(-c2ccc3cc[nH]c3c2F)c(F)c(N)c1Cl [Compound A, cyanomethyl 4-amino-3-chloro-5-fluoro-6-(7-fluoro-1H-indol-6-yl)pyridine-2-carboxylate]
- % visual injury, Obs [1]: 3%
- % visual injury Obs [2]: 85%
- % visual injury, Obs ([2]; safener mefenpyr-diethyl): 85%
- ECHCG % visual injury Obs ([2]; safener mefenpyr-diethyl): 85%
- % visual injury, Obs ([3]; 10 g/ha): 0%
- % visual injury, Obs [3, 12]: 0%
- AVEFA % visual injury Obs [3, 12]: 0%
- % visual injury, Obs ([4]; 10 g/ha): 45%
- % visual injury ([4]; Compound A 10 g/ha): 8%
- % visual injury, Obs [4, 12]: 28%
- CYPES % visual injury Obs [4, 12]: 28%
- % visual injury Obs [5]: 68%
- % visual injury (winter wheat (TRZAW); Compound A 10 g/ha): 0%
- % visual injury (winter wheat (TRZAW); Compound A 15 g/ha): 0%
- % visual injury ([6]; Compound A 10 g/ha): 5%
- % visual injury ([6]; Compound A 15 g/ha): 5%
- % visual injury, Obs ([7]; 10 g/ha): 90% and 92% and 88%
- % visual injury ([7]; Compound A 10 g/ha): 95% and 90% and 88% and 93%
- % visual injury Obs ([7]; Compound A 10 g/ha): 93% and 92% and 88%
- % visual injury, Obs ([7]; Compound A 10 g/ha): 100%
- SINAR % visual injury Obs ([7]; Compound A 10 g/ha (Examples 62-63)): 100%
- % visual injury ([7]; Compound A 15 g/ha): 97% and 93%
- % visual injury Obs ([7]; Compound A 15 g/ha): 93%
- % visual injury, Obs ([7]; SINAR, Compound A 10 g/ha): 93%
- Obs % visual injury ([7]; SINAR, Compound A 10 g/ha): 93% and 88% and 100%
- Obs % visual injury ([7]; SINAR, Compound A 10 g/ha (Table 65)): 100%
- Obs % visual injury ([7]; SINAR, Compound A 10 g/ha (Table 66)): 88%
- % visual injury, Obs ([7]; SINAR, Compound A 15 g/ha): 93%
- Obs % visual injury ([7]; SINAR, Compound A 15 g/ha): 93%
- % visual injury ([8]; Compound A 10 g/ha): 90%
- % visual injury ([8]; Compound A 15 g/ha): 95%
- % visual injury ([9]; Compound A 10 g/ha): 80%
- % visual injury ([9]; Compound A 15 g/ha): 80%
- % visual injury, Obs (maize (ZEAMX, Zea mays)): 5%
- ZEAMX % visual injury Obs (maize (ZEAMX, Zea mays)): 5%
- % visual injury, Obs [10]: 5%
- ORYSA % visual injury Obs [10]: 5%

Compound: C#CCOC(=O)c1nc(-c2ccc3cc[nH]c3c2F)c(F)c(N)c1Cl [Compound B, propargyl 4-amino-3-chloro-5-fluoro-6-(7-fluoro-1H-indol-6-yl)pyridine-2-carboxylate]
- Obs % visual injury ([11]; Compound B 10 g/ha): 85%

Compound: COc1ncc(F)c2nc(S(=O)(=O)Nc3c(F)cccc3F)nn12 [Florasulam, florasulam]
- % visual injury (winter wheat (TRZAW); Florasulam 5 g/ha): 0%
- % visual injury ([6]; Florasulam 5 g/ha): 10%
- % visual injury Obs ([7]; Florasulam 3.75 g/ha): 85%
- % visual injury ([7]; Florasulam 5 g/ha): 95%
- Obs % visual injury ([11]; Florasulam 5 g/ha): 95%
- % visual injury ([8]; Florasulam 5 g/ha): 70%
- % visual injury ([9]; Florasulam 5 g/ha): 5%

Source: patent US12285012B2, “Compositions comprising pyridine carboxylate herbicides with acetolactate synthase (ALS) inhibitor herbicides” (Corteva Agriscience LLC, priority 2018, dated 2025)
